Peptide text beside a SMILES is read from it.

The subject of this data set is rat erythrocytes. The data set can be described thus: Cytotoxicity to rat erythrocytes (hemolysis, absorbance 550 nm). The settings on record: for % 렛 적혈구 파괴능: 37 ℃, 30 min, 0.1 % Triton X-100 = 100 %. It is filed as cell-based.

On to `CC[C@H](C)[C@H](NC(=O)[C@H](Cc1ccccc1)NC(=O)[C@H](Cc1ccccc1)NC(=O)[C@H](CC(C)C)NC(=O)[C@H](CCCCN)NC(=O)[C@H](CC(N)=O)NC(=O)[C@H](CCCCN)NC(=O)[C@H](Cc1c[nH]c2ccccc12)NC(=O)[C@H](Cc1ccccc1)NC(=O)[C@@H](N)CCSC)C(=O)N[C@H](C(=O)N[C@@H](CCCCN)C(=O)N[C@@H](CCCCN)C(N)=O)C(C)C` [Teleogryllusine 3, MFWKNKLFFIVKK-NH2] (H-MFWKNKLFFIVKK-NH2), for which the “% 렛 적혈구 파괴능” value by setting is: (12.5 ㎍/ml peptide) 0%; (25 ㎍/ml peptide) 0.09%; (50 ㎍/ml peptide) 0.28%; (100 ㎍/ml peptide) 0%; (200 ㎍/ml peptide) 1.22%. For the same molecule, the “erythrocyte lysis, result in words” value (concentrations up to 200 ㎍/ml) is reported as “파괴능이 미미함”.
As for `CC[C@H](C)[C@H](NC(=O)CN)C(=O)NCC(=O)N[C@@H](C)C(=O)N[C@H](C(=O)N[C@@H](CC(C)C)C(=O)N[C@@H](CCCCN)C(=O)N[C@H](C(=O)N[C@@H](CC(C)C)C(=O)N[C@H](C(=O)N[C@H](C(=O)NCC(=O)N[C@@H](CC(C)C)C(=O)N1CCC[C@H]1C(=O)N[C@@H](C)C(=O)N[C@@H](CC(C)C)C(=O)N[C@H](C(=O)N[C@@H](CO)C(=O)N[C@@H](Cc1c[nH]c2ccccc12)C(=O)N[C@H](C(=O)N[C@@H](CCCCN)C(=O)N[C@@H](CCCNC(=N)N)C(=O)N[C@@H](CCCCN)C(=O)N[C@@H](CCCNC(=N)N)C(=O)N[C@@H](CCC(N)=O)C(=O)N[C@@H](CCC(N)=O)C(N)=O)[C@@H](C)CC)[C@@H](C)CC)[C@@H](C)O)[C@@H](C)O)C(C)C)C(C)C` [멜리틴], the “% 렛 적혈구 파괴능” value is on record as 75.8% (12.5 ㎍/ml peptide); 83.1% (25 ㎍/ml peptide); 89.8% (50 ㎍/ml peptide); 88.3% (100 ㎍/ml peptide); 91.4% (200 ㎍/ml peptide). For the same molecule, the “cytotoxicity to erythrocytes, result in words” value (even at low concentrations) was “높은 세포 독성”.

These data come from patent KR20200071421A, “왕귀뚜라미에서 유래한 항균 펩타이드 테레오그릴루신 3 및 그의 조성물” (대한민국(농촌진흥청장), priority 2018, dated 2020).
